Read-outs that look alike come from different tables or passages of the source.
Legend:
[1] = in vivo; details: mouse
[2] = test system: conscious SH rats; assay: antihypertensive activity, oral, in conscious SH rats (mean blood pressure); format: in vivo; details: for duration of antihypertensive effect (in words): SH rats; for decrease of the mean blood pressure (--BP), maximum / antihypertensive activity: conscious SH rats, oral; for decrease of the mean blood pressure (--BP), maximum: 1.6 mg/kg
Description: The maximum hypotensive effect, proportional to the administered dose, takes place 5-7 hours after the administration and the blood pressure is maintained at the decreased level for further 4-5 hours, at least. […]
Dosages such as 0.2-0.4 mg/Kg are sufficient to stabilize gradually the mean B.P. to lower level for a 24 hrs period. The drop-out of the pharmacological treatment is not combined with an acute hypertensive rebound effect but in the following 2-3 days the mean blood pressure gradually rises to the initial values.

[3] = test system: beagle dogs; assay: tolerability in male and female beagle dogs, oral bolus administration; details: 1.5 mg/kg/day
[4] = test system: mice; assay: acute toxicity in mice (LD50, os and i.p.)
[5] = test system: conscious SH rats; details: in the same experimental models; cited from earlier work
[6] = test system: K^+ -depolarized rat aorta strips; assay: inhibition of contractile responses to increasing Ca++ concentration in K+ depolarized rat aorta strips
[7] = test system: beagle dogs; details: dog, in vivo

SMILES	LD50 ([1]; ip) [mg/kg]	LD50 ([1]; po) [mg/kg]	further results
CCOC(=O)C1=C(CSCCN)NC(C)=C(C(=O)OC)C1c1ccccc1 (centres unmarked) [Compound 1]	31	33	–
CCOC(=O)C1=C(CSCCN)NC(C)=C(C(=O)OC)C1c1cccc([N+](=O)[O-])c1 (racemic) [Compound 11, 2-(2-aminoethylthio)methyl-3-ethoxycarbonyl-5-methoxycarbonyl-4-(m-nitrophenyl)-6-methyl-1,4-dihydropyridine]	22	52	duration of antihypertensive effect (in words) [2]: long lasting effects; decrease of the mean blood pressure (--BP), maximum [2]: higher than 85 mmHg; death of dogs [3]: died after three days treatment
CCOC(=O)C1=C(C)NC(CSCCN)=C(C(=O)OCC)C1c1ccccc1Cl (centres unmarked) [Compound 5]	9	12	decrease of the mean blood pressure (--BP), maximum [2]: higher than 85 mmHg
CCOC(=O)C1=C(CSCCNC=O)NC(C)=C(C(=O)OC)C1c1ccccc1SC (centres unmarked) [N-formylation of compound 8]	–	90	–
CCCCNCCSCC1=C(C(=O)OCC)C(c2cccc([N+](=O)[O-])c2)C(C(=O)OC)=C(C)N1 (centres unmarked) [Compound 15]	–	–	LD50 in mice, i.p. ([4]; mice, i.p.): 39 mg/kg; LD50 in mice, OS ([4]; mice, oral (os)): 40 mg/kg; death of dogs [3]: died after three days treatment
CCOC(=O)C1=C(CSCCN)NC(C)=C(C(=O)OC)C1c1cccc(C#N)c1 (centres unmarked) [Compound 28]	43	34	–
CCOC(=O)C1=C(CSCCN)NC(C)=C(C(=O)OC)C1c1ccc(F)cc1 (centres unmarked) [Compound 27]	28	46	–
COC(=O)C1=C(C)NC(CSCCN)=C(C(=O)OC)C1c1cccc([N+](=O)[O-])c1 (centres unmarked) [Compound 25]	25	53	–
CCOC(=O)C1=C(CSCC2CCCN2)NC(C)=C(C(=O)OC)C1c1cccc([N+](=O)[O-])c1 (centres unmarked) [Compound 16c]	–	–	LD50 in mice, i.p. ([4]; mouse, in vivo, ip): 27 mg/kg; LD50 in mice, OS ([4]; mouse, in vivo, po): 55 mg/kg
CCOC(=O)C1=C(C)NC(CSCCN)=C(C(=O)OCC)C1c1cccc([N+](=O)[O-])c1 (centres unmarked) [Compound 10]	20	21	decrease of the mean blood pressure (--BP), maximum [2]: higher than 85 mmHg
CCOC(=O)C1=C(CSCCNCCC#N)NC(C)=C(C(=O)OC)C1c1cccc([N+](=O)[O-])c1 (centres unmarked) [Compound 20, 2-[2-[N-(2-cyanoethyl)aminoethyl]thio]methyl-3-ethoxycarbonyl-5-methoxycarbonyl-4-(m-nitrophenyl)-6-methyl-1,4-dihydropyridine]	35	63	–
CCOC(=O)C1=C(CSCCN)NC(C)=C(C(=O)OC(C)C)C1c1cccc([N+](=O)[O-])c1 (centres unmarked) [Compound 24]	25	53	–
CCOC(=O)C1=C(C)NC(CSCC(N)C(=O)OCC)=C(C(=O)OCC)C1c1cccc([N+](=O)[O-])c1 (centres unmarked) [Compound 32]	354	763	–
CCOC(=O)C1=C(C)NC(CSCCNCCC#N)=C(C(=O)OCC)C1c1cccc([N+](=O)[O-])c1 (centres unmarked) [Compound 19]	54	95	–
CCOC(=O)C1=C(CSCCCN)NC(C)=C(C(=O)OC)C1c1cccc([N+](=O)[O-])c1 (centres unmarked) [Compound 17]	16	22	–
CCCCNCCSCC1=C(C(=O)OCC)C(c2cccc([N+](=O)[O-])c2)C(C(=O)OC)=C(C)N1 (centres unmarked) [Compound 14]	–	23	LD50 in mice, i.p. ([4]; mice, i.p.): 12 mg/kg
CCOC(=O)C1=C(CSCCN)NC(C)=C(C(=O)OC)C1c1ccccc1SC (centres unmarked) [Compound 8]	5	8	–
NNc1nncc2ccccc12 [hydralazine]	–	–	reflex tachicardia (other antihypertensive agents) [5]: often observed
CCOC(=O)C1=C(CSCCN)NC(C)=C(C(=O)OCCN(C)Cc2ccccc2)C1c1cccc([N+](=O)[O-])c1 (centres unmarked) [Compound 23]	32	91	–
CCOC(=O)C1=C(CSCC2CCCN2)NC(C)=C(C(=O)OC)C1c1cccc([N+](=O)[O-])c1 (centres unmarked) [Compound 16a]	–	–	LD50 in mice, i.p. ([4]; mouse, in vivo, ip): 7 mg/kg; LD50 in mice, OS ([4]; mouse, in vivo, po): 17 mg/kg

SMILES	LD50 ([1]; ip) [mg/kg]	LD50 ([1]; po) [mg/kg]	further results
COC(=O)C1=C(C)NC(C)=C(C(=O)OC)C1c1ccccc1[N+](=O)[O-] [nifedipine]	–	–	dependence of inhibition on incubation time [6]: not related to the incubation time
CCOC(=O)C1=C(CSCCN)NC(C)=C([N+](=O)[O-])C1c1cccc([N+](=O)[O-])c1 (centres unmarked) [Compound 21]	108	451	–
CCOC(=O)C1=C(CSCC2CCCN2)NC(C)=C(C(=O)OC)C1c1cccc([N+](=O)[O-])c1 (centres unmarked) [Compound 16b]	–	–	LD50 in mice, i.p. ([4]; mouse, in vivo, ip): 25 mg/kg; LD50 in mice, OS ([4]; mouse, in vivo, po): 39 mg/kg
CCOC(=O)C1=C(CSCCN)NC(C)=C(C(=O)OC)C1c1cccc([N+](=O)[O-])c1 (centres unmarked) [Compound 13]	8	21	–
CCOC(=O)C1=C(C)NC(CSCCN)=C(C(=O)OCC)C1c1ccccc1C(F)(F)F (centres unmarked) [Compound 3]	5	9	–
CCOC(=O)C1=C(CSCCNC=O)NC(C)=C(C(=O)OC)C1c1cccc([N+](=O)[O-])c1 (centres unmarked) [Example 3, 2-(2-formylaminoethylthio)-methyl-3-ethoxycarbonyl-5-methoxycarbonyl-4-(m-nitrophenyl)-6-methyl-1.4-dihydropyridine]	150	200	duration of antihypertensive effect (in words) [2]: long lasting effects; antihypertensive activity ([2]; once daily, very low doses (for ex. 0.2 mg/kg/os)): pronounced and long lasting antihypertensive activity; acute toxicity (in words) ([4]; mice where stated): low oral acute toxicity; death of dogs [7]: do not die after two weeks treatment; tolerability in dogs [7]: high tolerability
CCOC(=O)C1=C(CSCCN)NC(C)=C(C(=O)OC)C1c1ccccc1C(F)(F)F (centres unmarked) [Compound 2]	2	2	decrease of the mean blood pressure (--BP), maximum [2]: higher than 85 mmHg
CCOC(=O)C1=C(CSCCN)NC(C)=C(C(=O)OC)C1c1cccc(C(F)(F)F)c1 (centres unmarked) [Compound 9]	23	40	–
CCOC(=O)C1=C(CSCCN)NC(C)=C(C(=O)OC)C1c1cccc(Cl)c1 (centres unmarked) [Compound 7]	23	40	decrease of the mean blood pressure (--BP), maximum [2]: higher than 85 mmHg
CCOC(=O)C1=C(CSCC2CCCN2)NC(C)=C(C(=O)OC)C1c1cccc([N+](=O)[O-])c1 (centres unmarked) [Compound 16d]	–	–	antihypertensive activity ([2]; 3.2 mg/kg): practically inactive; LD50 in mice, i.p. ([4]; mouse, in vivo, ip): 1000 mg/kg; LD50 in mice, OS ([4]; mouse, in vivo, po): 1000 mg/kg
CCOC(=O)C1=C(CSCCN)NC(C)=C(C(=O)OC)C1c1ccccc1[N+](=O)[O-] (centres unmarked) [Compound 4]	2	3	–
CCOC(=O)C1=C(CSCCN)NC(C)=C(C#N)C1c1cccc([N+](=O)[O-])c1 (centres unmarked) [Compound 22]	82	611	–
CCOC(=O)C1=C(CSCC(C)N)NC(C)=C(C(=O)OC)C1c1cccc([N+](=O)[O-])c1 (centres unmarked) [Compound 30]	50	42	–
CCOC(=O)C1=C(CSCCN)NC(C)=C(C(=O)OC)C1c1ccccc1Cl (centres unmarked) [Compound 6, 2-(2-aminoethylthio)methyl-3-ethoxycarbonyl-5-methoxycarbonyl-4-(2-chlorophenyl)-6-methyl-1,4-dihydropyridine]	4	5	decrease of the mean blood pressure (--BP), maximum [2]: higher than 85 mmHg
CCOC(=O)C1=C(CSCCN)NC(C)=C(C(=O)OC)C1c1cccc(OC)c1 (centres unmarked) [Compound 26]	59	82	–
CCOC(=O)C1=C(CSCCNC(C)=O)NC(C)=C(C(=O)OC)C1c1cccc([N+](=O)[O-])c1 (racemic) [rac 2-acetylamino ethyl-thio-methyl, reference compound]	–	–	duration of antihypertensive effect (in words) [2]: shorter lasting antihypertensive effect
CCOC(=O)C1=C(CSCC(N)c2ccccc2)NC(C)=C(C(=O)OC)C1c1cccc([N+](=O)[O-])c1 (centres unmarked) [Compound 29]	46	77	–
CCOC(=O)C1=C(CSCCN(C)C)NC(C)=C(C(=O)OC)C1c1cccc([N+](=O)[O-])c1 (centres unmarked) [Compound 12]	25	38	decrease of the mean blood pressure (--BP), maximum [2]: higher than 85 mmHg
CCOC(=O)C1=C(CSCC(N)CO)NC(C)=C(C(=O)OC)C1c1cccc([N+](=O)[O-])c1 (centres unmarked) [Compound 31]	87	371	–
CCOC(=O)C1=C(CSCCCCN)NC(C)=C(C(=O)OC)C1c1cccc([N+](=O)[O-])c1 (centres unmarked) [Compound 18]	4	11	–

Source: patent publication US5047414A, “2-(aminoalkylthio)methyl-1,4-dihydropyridine, a method for the preparation thereof and pharmaceutical compositions containing them” (Boehringer Biochemia Robin S.p.A., priority 1986, dated 1991)
